# Data published in patent publication US11319299B2, “Substituted carboxamides as inhibitors of WDR5 protein-protein binding” (PROPELLON THERAPEUTICS INC., priority 2016, dated 2022).
# Molecular target: WDR5 (Homo sapiens (Human), UniProt P61964)
# Assay: Surface Plasmon Resonance (SPR) assay, KD and residence time
# Format: binding
# Conditions: surface plasmon resonance (SPR) assay; read-out: WDR5 binding affinity (KD)
# Protocol: (i) Surface Plasmon Resonance (SPR) Assay
# The lifetime of a drug on its target is determined by two rate constants: the association rate constant (kon) and the dissociation rate constant (koff). In principle, the lifetime of the binary drug—target complex is thus extended by a rapid rate of drug binding and/or a slow rate of drug—target complex dissociation. The in vivo lifetime of a drug-target complex is most critically dependent on the value of the koff [Nat. Rev. Drug Discov. […] Drug Discov. […] Drug-target residence time is defined as the reciprocal of koff (τ=1/koff), making the residence time a parameter that is easily measured by routine in vitro assay methods.
row,Compound,Kd
1,"C[C@@H]1CN(c2cc(F)c(C3=CC4CCC(C3)N4C(=O)OC(C)(C)C)cc2NC(=O)c2cn(C)c(=O)cc2C(F)(F)F)C[C@H](C)N1C (mixture of isomers) [Example 327, tert-butyl 3-[2-fluoro-5-[[-methyl-6-oxo-4-(trifluoromethyl)pyridine-3-carbonyl]amino]-4-[(3R,5S)-3,4,5-trimethylpiperazin-1-yl]phenyl]-8-azabicyclo[3.2.1]oct-2-ene-8-carboxylate]",123 nM
2,"C[C@H]1CN(c2cc(F)c(-c3cnc(N4CCN(C)CC4)nc3)cc2NC(=O)c2ccc(F)cc2C(F)(F)F)C[C@H](C)N1C (racemic) [Example 382, 4-fluoro-N-[4-fluoro-5-[2-(4-methylpiperazin-1-yl)pyrimidin-5-yl]-2-[(3R,5R)-3,4,5-trimethylpiperazin-1-yl]phenyl]-2-(trifluoromethyl)benzamide]",117 nM
3,"C[C@H]1CN(c2cc(F)c(-c3cnc(N4CCOCC4)nc3)cc2NC(=O)c2ccc(F)cc2C(F)(F)F)C[C@H](C)N1C (racemic) [Example 387, 4-fluoro-N-[4-fluoro-5-(2-morpholin-4-ylpyrimidin-5-yl)-2-[(3R,5R)-3,4,5-trimethylpiperazin-1-yl]phenyl]-2-(trifluoromethyl)benzamide]",83.5 nM
4,"CC1CN(c2cc(F)c(-c3cnc(N4CCOCC4)nc3)cc2NC(=O)c2ccccc2)CCN1C (stereo in doubt) [Example 78, N-[4-fluoro-5-(2-morpholin-4-ylpyrimidin-5-yl)-2-[(3R)-3,4-dimethylpiperazin-1-yl]phenyl]benzamide]",17.9 nM
5,"CC1CN(c2cc(F)c(-c3cnc(N4CCOCC4)nc3)cc2NC(=O)c2ccco2)CCN1C (stereo in doubt) [Example 79, N-[4-fluoro-5-(2-morpholin-4-ylpyrimidin-5-yl)-2-[(3R)-3,4-dimethylpiperazin-1-yl]phenyl]furan-2-carboxamide]",> 200 nM
6,"CC1CN(c2cc(F)c(-c3cnc(N4CCOCC4)nc3)cc2NC(=O)c2cccnc2)CCN1C (stereo in doubt) [Example 80, N-[4-fluoro-5-(2-morpholin-4-ylpyrimidin-5-yl)-2-[(3R)-3,4-dimethylpiperazin-1-yl]phenyl]pyridine-3-carboxamide]",> 200 nM
7,"CC1CN(c2cc(Cl)c(-c3cnc(N4CCOCC4)nc3)cc2NC(=O)c2c[nH]c(=O)cc2C(F)(F)F)CCN1C (stereo in doubt) [Example 81, N-[4-chloro-5-(2-morpholin-4-ylpyrimidin-5-yl)-2-[(3R)-3,4-dimethylpiperazin-1-yl]phenyl]-6-oxo-4-(trifluoromethyl)-1H-pyridine-3-carboxamide]",11.1 nM
8,"CC1CN(c2cc(F)c(-c3cnc(N4CCOCC4)nc3)cc2NC(=O)c2nn(C)c3ccccc23)CCN1C (stereo in doubt) [Example 116, N-[4-fluoro-5-(2-morpholin-4-ylpyrimidin-5-yl)-2-[(3R)-3,4-dimethylpiperazin-1-yl]phenyl]-1-methylindazole-3-carboxamide]",76.8 nM
9,"CC1CN(c2cc(F)c(-c3ccc(N4CCOCC4)cc3)cc2NC(=O)c2nn(C)c3ccccc23)CCN1C (stereo in doubt) [Example 117, N-[4-fluoro-5-(4-morpholin-4-ylphenyl)-2-[(3R)-3,4-dimethylpiperazin-1-yl]phenyl]-1-methylindazole-3-carboxamide]",42.8 nM
10,"CC1CN(c2cc(F)c(-c3cnc(N4CCOCC4)nc3)cc2NC(=O)c2cnn(C)c2)CCN1C (stereo in doubt) [Example 121, N-[4-fluoro-5-(2-morpholin-4-ylpyrimidin-5-yl)-2-[(3R)-3,4-dimethylpiperazin-1-yl]phenyl]-1-methylpyrazole-4-carboxamide]",33.4 nM
11,"CC1CN(c2cc(F)c(-c3ccc(N4CCOCC4)cc3)cc2NC(=O)c2cnn(C)c2)CCN1C (stereo in doubt) [Example 122, N-[4-fluoro-5-(4-morpholin-4-ylphenyl)-2-[(3R)-3,4-dimethylpiperazin-1-yl]phenyl]-1-methylpyrazole-4-carboxamide]",70.2 nM
12,"Cc1csc(C(=O)Nc2cc(-c3cnc(N4CCOCC4)nc3)c(F)cc2N2CCN(C)C(C)C2)n1 (stereo in doubt) [Example 181, N-[4-fluoro-5-(2-morpholin-4-ylpyrimidin-5-yl)-2-[(3R)-3,4-dimethylpiperazin-1-yl]phenyl]-4-methyl-1,3-thiazole-2-carboxamide]",> 200 nM
13,"CC1CN(c2cc(F)c(-c3cnc(N4CCOCC4)nc3)cc2NC(=O)c2csc(CN(C)C)n2)CCN1C (stereo in doubt) [Example 182, 2-[(dimethylamino)methyl]-N-[4-fluoro-5-(2-morpholin-4-ylpyrimidin-5-yl)-2-[(3R)-3,4-dimethylpiperazin-1-yl]phenyl]-1,3-thiazole-4-carboxamide]",> 200 nM
14,"CC1CN(c2cc(F)c(-c3cnc(N4CCOCC4)nc3)cc2NC(=O)c2n[nH]cc2Cl)CCN1C (stereo in doubt) [Example 183, 4-chloro-N-[4-fluoro-5-(2-morpholin-4-ylpyrimidin-5-yl)-2-[(3R)-3,4-dimethylpiperazin-1-yl]phenyl]-1H-pyrazole-3-carboxamide]",113 nM
15,"CC1CN(c2cc(F)c(-c3cnc(N4CCOCC4)nc3)cc2NC(=O)c2ccn(C)n2)CCN1C (stereo in doubt) [Example 192, N-[4-fluoro-5-(2-morpholin-4-ylpyrimidin-5-yl)-2-[(3R)-3,4-dimethylpiperazin-1-yl]phenyl]-1-methylpyrazole-3-carboxamide]",1260 nM

# Same assay, conditions: surface plasmon resonance (SPR); read-out: WDR5 binding affinity (KD)
row,Compound,Kd
1,"4-(difluoromethyl)-N-[4-fluoro-5-[2-[(2R)-2-methylmorpholin-4-yl]pyrimidin-5-yl]-2-[(3S,5R)-3,4,5-trimethylpiperazin-1-yl]phenyl]-1-methyl-6-oxopyridine-3-carboxamide [Example 481]",4.89 nM
2,"4-(difluoromethyl)-N-[4-fluoro-5-[6-(oxan-4-yloxy)pyridin-3-yl]-2-[(3R)-3,4-dimethylpiperazin-1-yl]phenyl]-6-oxo-1H-pyridine-3-carboxamide [Example 403]",1.16 nM
3,"C[C@@H]1CN(c2ccc(-c3cc(NC(=O)c4cn(C)c(=O)cc4C(F)(F)F)c(N4CCN(C)[C@@H](C)C4)cc3F)cn2)C[C@H](C)O1 (racemic) [Example 421, N-[4-fluoro-5-[6-[(2R,6S)-2,6-dimethylmorpholin-4-yl]pyridin-3-yl]-2-[(3R)-3,4-dimethylpiperazin-1-yl]phenyl]-1-methyl-6-oxo-4-(trifluoromethyl)pyridine-3-carboxamide]",1.96 nM
4,"C[C@@H]1CN(c2ncc(-c3cc(NC(=O)c4cn(C)c(=O)cc4C(F)(F)F)c(N4CC[C@@H](N(C)C)C4)cc3F)cn2)C[C@H](C)O1 (racemic) [Example 426, N-[4-fluoro-2-[(3S)-3-(dimethylamino)pyrrolidin-1-yl]-5-[2-[(2R,6S)-2,6-dimethylmorpholin-4-yl]pyrimidin-5-yl]phenyl]-1-methyl-6-oxo-4-(trifluoromethyl)pyridine-3-carboxamide]",10.9 nM
5,"CCN(C)[C@@H]1CCN(c2cc(F)c(-c3cnc(N4C[C@@H](C)O[C@@H](C)C4)nc3)cc2NC(=O)c2cn(C)c(=O)cc2C(F)(F)F)C1 (racemic) [Example 427, N-[4-fluoro-5-[2-[(2R,6S)-2,6-dimethylmorpholin-4-yl]pyrimidin-5-yl]-2-[(3S)-3-[ethyl(methyl)amino]pyrrolidin-1-yl]phenyl]-1-methyl-6-oxo-4-(trifluoromethyl)pyridine-3-carboxamide]",5.59 nM
6,"C[C@@H]1CN(c2cc(F)c(-c3ccc(N4CCO[C@@H](C)C4)nc3)cc2NC(=O)c2c[nH]c(=O)cc2C(F)(F)F)C[C@H](C)N1C (racemic) [Example 434, N-[4-fluoro-5-[6-[(2R)-2-methylmorpholin-4-yl]pyridin-3-yl]-2-[(3S,5R)-3,4,5-trimethylpiperazin-1-yl]phenyl]-6-oxo-4-(trifluoromethyl)-1H-pyridine-3-carboxamide]",0.617 nM
7,"C[C@@H]1CN(c2ncc(-c3cc(NC(=O)c4cn(C)c(=O)cc4C(F)F)c(N4CCN(C)[C@@H](C)C4)cc3F)cn2)CCO1 (racemic) [Example 460, 4-(difluoromethyl)-N-[4-fluoro-2-[(3S)-3,4-dimethylpiperazin-1-yl]-5-[2-[(2R)-2-methylmorpholin-4-yl]pyrimidin-5-yl]phenyl]-1-methyl-6-oxopyridine-3-carboxamide]",3.43 nM
8,"C[C@H]1CN(c2cc(F)c(-c3cnc(N4CCOC[C@@H]4C)nc3)cc2NC(=O)c2cn(C)c(=O)cc2C(F)(F)F)CCN1C (racemic) [Example 608, N-[4-fluoro-2-[(3R)-3,4-dimethylpiperazin-1-yl]-5-[2-[(3R)-3-methylmorpholin-4-yl]pyrimidin-5-yl]phenyl]-1-methyl-6-oxo-4-(trifluoromethyl)pyridine-3-carboxamide]",0.977 nM
9,"C[C@@H]1CN(c2nccc(-c3cc(NC(=O)c4c[nH]c(=O)cc4C(F)(F)F)c(N4C[C@@H](C)N(C)[C@@H](C)C4)cc3F)n2)CCO1 (racemic) [Example 691, N-[4-fluoro-5-[2-[(2R)-2-methylmorpholin-4-yl]pyrimidin-4-yl]-2-[(3R,5S)-3,4,5-trimethylpiperazin-1-yl]phenyl]-6-oxo-4-(trifluoromethyl)-H-pyridine-3-carboxamide]",1.31 nM
10,"C[C@@H]1CN(c2cc(F)c(-c3ccnc(N4CCO[C@@H](C)C4)n3)cc2NC(=O)c2cn(C)c(=O)cc2C(F)(F)F)C[C@H](C)N1C (racemic) [Example 694, N-[4-fluoro-5-[2-[(2R)-2-methylmorpholin-4-yl]pyrimidin-4-yl]-2-[(3S,5R)-3,4,5-trimethylpiperazin-1-yl]phenyl]-1-methyl-6-oxo-4-(trifluoromethyl)pyridine-3-carboxamide]",4.92 nM
